Experimental data from US12653190B2, “Heteroaryl-triazole compounds as pesticides” (Bayer Aktiengesellschaft, priority 2020, dated 2026).

Legend:
Format in all cases: in vivo
[1] = tested on: green peach aphid (Myzus persicae); test: Myzus persicae oral test; details: 120 h, 4 ppm, after 5 days
Experimental: • Solvent: 100 parts by weight acetone
To produce a suitable preparation of active compound, 1 part by weight of active compound is mixed with the stated amount of solvent, and the concentrate is diluted with water to the desired concentration.
50 μL compound solution is filled in microtiter plates and 150 μL IPL41 insect medium (33%+15% sugar) is added to obtain a total volume of 200 μL per well. Afterwards the plates are sealed with parafilm through which a mixed population of the green peach aphid (Myzus persicae) can suck on the compound preparation.
After 5 days mortality in % is determined. 100% means all aphids have been killed and 0% means none of the aphids have been killed.

[2] = tested on: adult mosquitoes Aedes aegypti strain MONHEIM; test: Aedes aegypti test (AEDSAE surface treatment & contact assay); details: 24 hours after contact, read-out: efficacy (mortality)
Experimental: Aedes aegypti Test (AEDSAE Surface Treatment & Contact Assay)
• Solvent: Aceton+2000 ppm rapeseed oil methyl ester (RME)
In order to produce a sufficient, active ingredient containing solution it is necessary to solve the test compound in the solvent-mix (acetone at 2 mg/ml/RME 2000 ppm). This solution is pipetted onto a glazed tile and after evaporation of the acetone, adult mosquitoes of the species Aedes aegypti strain MONHEIM are placed onto the dried surface. The exposure time is 30 minutes.
Mortality in percent (%) is determined 24 hours after contact of the insects to the treated surface. 100% mortality means that all tested insects are dead, whereas 0% means that no insect died.

[3] = tested on: larvae of the southern green stink bug (Nezara viridula); test: Nezara viridula spray test; details: 96 h, 100 g/ha, after 4 days, barley plants
How it was run: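 Compound in acetone/DMF was diluted in water with 1000 ppm alkylarylpolyglycol ether emulsifier. Barley plants were sprayed with it, then infested with Nezara viridula larvae. Mortality % was scored after 4 days (100% = all killed).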

[4] = tested on: adult brown dog ticks (Rhipicephalus sanguineus); test: Rhipicephalus sanguineus in-vitro contact test, adult brown dog ticks; details: 5 μg/cm^2 (=500 g/ha), after 48 hours, read-out: efficacy (ticks dead or moribund)
Experimental: Rhipicephalus sanguineus—In-Vitro Contact Tests with Adult Brown Dog Ticks
9 mg compound is solved in 1 mL acetone and diluted with acetone to the desired concentration. 250 μL of the test solution is filled in 25 mL glass test tubes and homogeneously distributed on the inner walls by rotation and tilting on a shaking device (2 h at 30 rpm). With a compound concentration of 900 ppm, an inner surface of 44.7 cm^2 and a homogeneous distribution, a dose of 5 μg/cm^2 is achieved.
After the solvent has evaporated, each test tube is filled with 5-10 adult brown dog ticks (Rhipicephalus sanguineus), closed with a perforated lid and incubated in a lying position at room temperature and relative humidity. After 48 hours efficacy is determined. The ticks are patted on the ground of the tubes and are incubated on a heating plate at 45-50° C. for at most 5 minutes Immotile or uncoordinated moving ticks, which are not able to escape the heat by climbing upwards, are marked as dead or moribund.
An efficacy of 100% means all ticks are dead or moribund; 0% means no ticks are dead or moribund.

In the case of C[C@H](NC(=O)c1cc(Cl)cc(OS(C)(=O)=O)c1)c1ncnn1-c1ccc(C#N)cn1 [Example I-46], the mortality at 4 ppm [1] was 100%, the mortality at 4 mg/m2 ([2]; surface concentration 4 mg/m^2, 30 minutes exposure) was 80 to 100% and the mortality at 20 mg/m2 ([2]; surface concentration 20 mg/m^2, 30 minutes exposure) was 80 to 100%. The mortality at 100 g/ha [3] was 100% and the pest or weed control at 5 µg/cm2, 5 µg/cm2 [4] was 100%.
